Molecules are shown by their SMILES.

For one test, the target named is T1, human DGKζ (Homo sapiens, UniProt Q13574).
T1 construct: TVMV protease cleavage site (C); Hexa-His (C); made in house; host or cells: Sf9 insect cells (baculovirus)
T1 sequence (Q13574 with tags, fused parts or gaps isoform Q13574-4): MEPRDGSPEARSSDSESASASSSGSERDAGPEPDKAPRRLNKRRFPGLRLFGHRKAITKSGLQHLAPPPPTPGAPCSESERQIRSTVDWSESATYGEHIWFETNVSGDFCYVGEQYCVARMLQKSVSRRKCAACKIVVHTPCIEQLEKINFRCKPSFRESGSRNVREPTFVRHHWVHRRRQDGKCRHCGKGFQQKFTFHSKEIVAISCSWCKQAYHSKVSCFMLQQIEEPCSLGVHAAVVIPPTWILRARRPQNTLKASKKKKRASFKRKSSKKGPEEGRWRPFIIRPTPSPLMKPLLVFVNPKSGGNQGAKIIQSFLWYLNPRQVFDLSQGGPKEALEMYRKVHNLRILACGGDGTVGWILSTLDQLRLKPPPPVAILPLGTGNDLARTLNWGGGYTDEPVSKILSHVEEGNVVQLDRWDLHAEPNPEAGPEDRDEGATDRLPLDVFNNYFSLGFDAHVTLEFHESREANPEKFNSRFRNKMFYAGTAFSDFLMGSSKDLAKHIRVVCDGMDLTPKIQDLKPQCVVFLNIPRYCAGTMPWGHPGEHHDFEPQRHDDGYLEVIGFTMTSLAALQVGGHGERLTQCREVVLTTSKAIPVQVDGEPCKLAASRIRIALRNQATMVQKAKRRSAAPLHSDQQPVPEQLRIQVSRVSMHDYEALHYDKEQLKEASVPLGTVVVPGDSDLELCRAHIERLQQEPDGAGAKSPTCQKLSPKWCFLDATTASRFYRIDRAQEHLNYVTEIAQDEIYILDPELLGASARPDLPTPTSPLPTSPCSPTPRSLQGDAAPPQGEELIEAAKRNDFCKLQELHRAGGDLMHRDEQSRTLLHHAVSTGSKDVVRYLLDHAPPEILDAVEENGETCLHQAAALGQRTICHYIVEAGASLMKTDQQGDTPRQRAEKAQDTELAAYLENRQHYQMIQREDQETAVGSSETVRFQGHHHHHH
Briefly: In vitro DGK inhibition assay, DGKζ liposome (LIPGLO) assay. In kind it is biochemical. Particulars: read-out: Enzyme Inhibition DGKzeta IC50. As to the method:
(§1) The DGKα and DGKζ reactions were performed using either extruded liposome (DGKα and DGKζ LIPGLO assays) or detergent/lipid micelle substrate (DGKα and DGKζ assays). The reactions were carried out in 50 mM MOPS pH 7.5, 100 mM NaCl, 10 mM MgCl2, 1 μM CaCl2, and 1 mM DTT (assay buffer). The reactions using a detergent/lipid micelle substrate also contained 50 mM octyl B-D-glucopyranoside. The lipid substrate concentrations were 11 mM PS and 1 mM DAG for the detergent/lipid micelle reactions. The lipid substrate concentrations were 2 mM PS, 0.25 mM DAG, and 2.75 mM PC for the extruded liposome reactions (5 mM total lipid). The reactions were carried out in 150 μM ATP The enzyme concentrations for the DGKα and DGKζ were 5 nM
(§2) The compound inhibition studies were carried out as follows: 25 nL (ADPGLO assay) or 50 nL (LIPGLO assay) droplets of each test compound (top concentration 10 mM with 11 point, 3-fold dilution series for each compound) solubilized in DMSO were transferred to wells of a white 1536 well plate (Corning 3725). A 5 mL enzyme/lipid substrate solution at 2× final reaction concentration was prepared by combining 2.5 mL 4× enzyme solution (20 nM DGKα, or DGKζ (prepared as described below) in assay buffer) and 2.5 mL of either 4× liposome or 4× detergent/lipid micelle solution (compositions described below) and incubated at room temperature for 10 minutes. Next, 1 μL 2× enzyme/lipid substrate solution was added to wells containing the test compound and reactions were initiated with the addition of 1 μL 300 uM ATP. The reactions were allowed to proceed for 2 hr (ADPGLO assay) or 1 hr (LIPGLO assay), after which 2 μL Glo Reagent (Promega V9101) was added and incubated for 40 minutes. Next, 4 μL Kinase Detection Reagent was added and incubated for 30 minutes. Luminescence was recorded using an EnVision microplate reader. […] The compounds were evaluated at 11 concentrations to determine IC50.
(§3) The lipid composition was 5 mol % DAG (Avanti 8008110), 40 mol % PS (Avanti 840035P), and 55 mol % PC (Avanti 850457) at a total lipid concentration of 7-8 mg/mL for the liposome solution. The PC, DAG, and PS were dissolved in chloroform, combined, and dried in vacuo to a thin film. The lipids were hydrated to 20 mM in 50 mM MOPS pH 7.5, 100 mM NaCl, 5 mM MgCl2, and were freeze-thawed five times. The lipid suspension was extruded through a 100 nm polycarbonate filter 10-12 times. […] The liposome preparation was stored at 4° C. for as long as four weeks.
(§4) The lipid composition was 5 mol % DAG (Avanti 8008110), 40 mol % PS (Avanti 840035P), and 55 mol % PC (Avanti 850457) at a total lipid concentration of 15.2 mg/mL for the 4× liposome solution. The PC, DAG, and PS were dissolved in chloroform, combined, and dried in vacuo to a thin film. The lipids were hydrated to 20 mM in 50 mM MOPS pH 7.5, 100 mM NaCl, 5 mM MgCl2, and were freeze-thawed five times. The lipid suspension was extruded through a 100 nm polycarbonate filter eleven times. […] The liposome preparation was stored at 4° C. for as long as four weeks.
(§5) Human DGK-alpha-TVMV-His-pFBgate and human DGK-zeta-transcript variant-2-TVMV-His-pFBgate baculovirus samples were generated using the Bac-to-Bac baculovirus expression system (Invitrogen) according to the manufacturer's protocol. […] Baculovirus amplification was achieved using infected Sf9 cells at 1:1500 virus/cell ratios, and grown for 65 hours at 27° C. post-transfection.
(§6) The expression scale up for each protein was carried out in the Cellbag 50L WAVE-Bioreactor System 20/50 from GE Healthcare Bioscience. 12 L of 2×10^6 cells/mL Sf9 cells (Expression System, Davis, CA) grown in ESF921 insect medium (Expression System) were infected with virus stock at 1:200 virus/cell ratios, and grown for 66-68 hours at 27° C. post-infection.
Usually IC50 stands for the concentration that inhibits the measured activity by half. With `CC(C1CC1)N(C)c1c(C#N)c(=O)n(C)c2ccc(Br)nc12` (racemic) [Example 9, 6-bromo-4-((1-cyclopropylethyl)(methyl)amino)-1-methyl-2-oxo-1,2-dihydro-1,5-naphthyridine-3-carbonitrile], the concentration for half-maximal inhibition (IC50) is 7.1 µM. Still for that read-out and setting: in the case of `CC(C1CC1)N(C)c1cc(=O)n(C)c2ccc(C#N)nc12` (racemic) [Example 32, 8-((1-cyclopropylethyl)(methyl)amino)-5-methyl-6-oxo-5,6-dihydro-1,5-naphthyridine-2-carbonitrile] it was 90 µM; in that of `COc1ccc(-c2cccc(N(C)c3nc(=O)n(C)c4ccc(C#N)nc34)c2)cc1` [Example 2, 4-((4′-methoxy-[1,1′-biphenyl]-3-yl)(methyl)amino)-1-methyl-2-oxo-1,2-dihydropyrido[3,2-d]pyrimidine-6-carbonitrile], over 38 µM. The same measure, in the same setting: in the case of `CN(c1c(C#N)c(=O)n(C)c2ccc(Br)nc12)C1CCCCC1` [Example 7, 6-bromo-4-[cyclohexyl(methyl)amino]-1-methyl-2-oxo-1,2-dihydro-1,5-naphthyridine-3-carbonitrile] it was 21 µM.

Take `CC1CCC(N(C)c2c(C#N)c(=O)n(C)c3ccc(Br)nc23)CC1` (stereo not shown) [Example 8, 6-bromo-1-methyl-4-(methyl(4-methylcyclohexyl)amino)-2-oxo-1,2-dihydro-1,5-naphthyridine-3-carbonitrile]: the IC50 amounted to 31 µM.

With `CN(c1c(C#N)c(=O)n(C)c2ccc(C#N)nc12)C1CCCCC1` [Example 10, 8-[cyclohexyl(methyl)amino]-5-methyl-6-oxo-5,6-dihydro-1,5-naphthyridine-2,7-dicarbonitrile], the concentration for half-maximal inhibition (IC50) was found to be 4 µM. Same read-out and setting: in the case of `CC(C1CC1)N(C)c1c(C#N)c(=O)n(C)c2ccc(C#N)nc12` (stereo not shown) [Example 11, 8-[(1-cyclopropylethyl)(methyl)amino]-5-methyl-6-oxo-5,6-dihydro-1,5-naphthyridine-2,7-dicarbonitrile] it was 7.3 µM; in that of `COc1ccc2c(n1)c(N(C)C1CCCCC1)c(C#N)c(=O)n2C` [Example 12, 4-[cyclohexyl(methyl)amino]-6-methoxy-1-methyl-2-oxo-1,2-dihydro-1,5-naphthyridine-3-carbonitrile], 84 µM.

Take `Cc1ccc2c(n1)c(N(C)C(C)C1CC1)c(C#N)c(=O)n2C` (stereo not shown) [Example 14, 4-[(1-cyclopropylethyl)(methyl)amino]-1,6-dimethyl-2-oxo-1,2-dihydro-1,5-naphthyridine-3-carbonitrile]: the IC50 stood at 29 µM. The same measure, in the same setting: the value for `CC(C1CC1)N(C)c1c(C#N)c(=O)n(C)c2ccc(CC#N)nc12` (stereo not shown) [Example 15, 6-(cyanomethyl)-4-[(1-cyclopropylethyl)(methyl)amino]-1-methyl-2-oxo-1,2-dihydro-1,5-naphthyridine-3-carbonitrile] was 7.1 µM. Still for that read-out and setting: in the case of `C#CCn1c(=O)c(C#N)c(N(C)C2CCCCC2)c2nc(Br)ccc21` [Example 16, 6-bromo-4-[cyclohexyl(methyl)amino]-2-oxo-1-(prop-2-yn-1-yl)-1,2-dihydro-1,5-naphthyridine-3-carbonitrile] it was 12 µM; in that of `CN(c1cc(=O)n(C)c2ccc(C#N)nc12)C1CCCCC1` [Example 19, 8-(cyclohexyl(methyl)amino)-5-methyl-6-oxo-5,6-dihydro-1,5-naphthyridine-2-carbonitrile], 12 µM. Turning to `CN(c1cccc(C#N)c1)c1cc(=O)n(C)c2ccc(C#N)nc12` [Example 21, 8-((3-cyanophenyl)(methyl)amino)-5-methyl-6-oxo-5,6-dihydro-1,5-naphthyridine-2-carbonitrile], the IC50 was over 125 µM. `Cn1c(=O)cc(N(CC2CC2)c2ccc(C3CC3)cn2)c2nc(C#N)ccc21` [Example 46, 8-((cyclopropylmethyl)(5-cyclopropylpyridin-2-yl)amino)-5-methyl-6-oxo-5,6-dihydro-1,5-naphthyridine-2-carbonitrile]: the 50% inhibitory concentration (IC50) came out at 0.99 µM.

The target in the next test is T2, human DGKα (Homo sapiens, UniProt P23743).
T2 construct: TVMV protease cleavage site (C); Hexa-His (C); made in house; host or cells: Sf9 insect cells (baculovirus)
T2 sequence (P23743 with tags, fused parts or gaps): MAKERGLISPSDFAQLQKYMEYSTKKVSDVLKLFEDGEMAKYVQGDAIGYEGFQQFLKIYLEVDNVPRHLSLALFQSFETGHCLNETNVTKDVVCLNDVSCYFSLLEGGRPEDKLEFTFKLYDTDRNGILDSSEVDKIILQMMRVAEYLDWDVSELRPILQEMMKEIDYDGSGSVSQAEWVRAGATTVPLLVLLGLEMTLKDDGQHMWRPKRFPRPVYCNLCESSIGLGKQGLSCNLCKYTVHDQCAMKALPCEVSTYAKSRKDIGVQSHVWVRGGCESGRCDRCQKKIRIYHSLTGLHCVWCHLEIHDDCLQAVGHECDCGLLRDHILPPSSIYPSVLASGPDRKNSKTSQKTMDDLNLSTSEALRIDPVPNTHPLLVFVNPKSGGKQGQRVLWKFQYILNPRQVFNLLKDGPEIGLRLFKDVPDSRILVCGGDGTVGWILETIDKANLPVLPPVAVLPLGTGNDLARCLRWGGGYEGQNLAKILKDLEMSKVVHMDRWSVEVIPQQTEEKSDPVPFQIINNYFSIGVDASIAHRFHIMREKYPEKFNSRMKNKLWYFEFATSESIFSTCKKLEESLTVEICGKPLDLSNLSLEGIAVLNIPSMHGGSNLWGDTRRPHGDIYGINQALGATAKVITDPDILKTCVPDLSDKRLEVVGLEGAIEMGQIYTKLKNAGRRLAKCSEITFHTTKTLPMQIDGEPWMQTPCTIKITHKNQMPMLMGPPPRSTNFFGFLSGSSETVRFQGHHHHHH
The test can be described thus: In vitro DGK inhibition assay, DGKα liposome (LIPGLO) assay. In kind it is biochemical. Particulars: read-out: Enzyme Inhibition DGKalpha IC50. On the procedure:
as §1, §2, §3, §4, §5, §6
In the case of `CC(C1CC1)N(C)c1cc(=O)n(C)c2ccc(C#N)nc12` (racemic) [Example 32, 8-((1-cyclopropylethyl)(methyl)amino)-5-methyl-6-oxo-5,6-dihydro-1,5-naphthyridine-2-carbonitrile], the concentration for half-maximal inhibition (IC50) was 1.4 µM. Same read-out and setting: in the case of `COc1ccc(-c2cccc(N(C)c3nc(=O)n(C)c4ccc(C#N)nc34)c2)cc1` [Example 2, 4-((4′-methoxy-[1,1′-biphenyl]-3-yl)(methyl)amino)-1-methyl-2-oxo-1,2-dihydropyrido[3,2-d]pyrimidine-6-carbonitrile] it was over 38 µM.
